What was measured:
[1] = system: MIA-PaCa2 cells; assay: MTT cytotoxicity / cell viability assay, MIA-PaCa2; assay type: cell-based; conditions: Homo sapiens, MIA PaCa-2, 72 hours post-treatment, read-out: IC50 values in specified pancreatic cancer cell line
Protocol: (§1) Four human PDAC cell lines were used in this study, including MIA-PaCa2, Panc-1, AsPC1, and BxPC3, in which the MIA-PaCa2, Panc-1 and AsPC1 comprises a KRAS mutation (i.e., KRAS mutant cell lines), and the BxPC3 has a wild-type KRAS gene (see, for example, Wen-Hsuan Chang et al., Cancer Lett. (2021), 517: 66-77; and Radu Pirlog et al., J Clin Invest. (2022), 132(14): e161454). The MIA-PaCa2 cells were cultured in RPMI1640 medium containing 10% fetal bovine serum (FBS) and 1% penicillin/streptomycin. The AsPC1, BxPC3 and Panc-1 cells were cultured in DMEM high glucose medium supplemented with 10% FBS and 1% penicillin/streptomycin.
(§2) Cytotoxicity and cell proliferation were determined by using 3-(4,5-dimethylthiazol-2-yl)-2,5-diphenyltetrazolium bromide (MTT) assay. Specifically, the MIA-PaCa2 and Panc-1 were seeded in a 96-well plate (5×10^3 cells/well). […] The resulting formazan crystals were dissolved using dimethyl sulfoxide (DMSO), and the absorbance was measured at 495 nm using a microplate reader. The cell proliferation ability was quantified as the optical density (OD) value. The cytotoxicity induced by the treatments was determined by calculating the percentage of viable cells (dividing the optical density of the drug-treated samples by that of the control samples). […]

[2] = system: Panc-1 cells; assay: MTT cytotoxicity / cell viability assay, Panc-1; assay type: cell-based; conditions: Homo sapiens, 72 hours post-treatment, read-out: IC50 values in specified pancreatic cancer cell line
Protocol: as §1, §2

[3] = system: AsPC1 cells; assay: MTT cytotoxicity / cell viability assay, AsPC1; assay type: cell-based; conditions: Homo sapiens, 72 hours post-treatment, read-out: IC50 values in specified pancreatic cancer cell line
Protocol: as §1, §2

[4] = system: BxPC3 cells; assay: MTT cytotoxicity / cell viability assay, BxPC3; assay type: cell-based; conditions: Homo sapiens, BXPC-3, 72 hours post-treatment, read-out: IC50 values in specified pancreatic cancer cell line
Protocol: as §1, §2

[5] = system: MIA-PaCa2 subcutaneous tumor; assay: Subcutaneous tumor model; assay type: in vivo, NOD-SCID male mice; conditions: oral, five times per week for three weeks; mivebresib 1 mg/Kg, rucaparib 10 mg/Kg; FIG. 2
Protocol: The MIA-PaCa2 cells (2×10^6) were suspended in 10 μL phosphate buffered saline (PBS), and then subcutaneously injected to NOD-SCID male mice (6-8 weeks old). After 14 days (the tumor size was about 100-150 mm^3), PBS, mivebresib (1 mg/Kg), rucaparib (10 mg/Kg), or the combination of mivebresib and rucaparib (1 mg/Kg of mivebresib plus 10 mg/Kg of rucaparib) was orally administered to the mice five times per week, for three consecutive weeks. The tumor size was measured using caliper every 2-3 days, until the mice met humane endpoint criteria and were euthanized.
Two tumor models, including subcutaneous and orthotropic tumor models, were used in the example to evaluate the anti-tumor effect of mivebresib and rucaparib on pancreatic cancer. As described in “Materials and Methods”, the tumor-bearing mice were respectively administered with PBS, mivebresib, rucaparib, and the combination of mivebresib and rucaparib. The tumor sizes were monitored by caliper and IVIS® imaging system. The results were respectively depicted in FIG. 2 (subcutaneous tumor model) and FIG. 3 (orthotropic tumor model).

[6] = system: pancreatic cancer; assay: Overall survival of pancreatic cancer patients with neoadjuvant chemotherapy; assay type: in vivo, human; conditions: patients with cisplatin treatment (without: 18.96 months); data not shown
Protocol: Whether neoadjuvant chemotherapy (a chemotherapy that a cancer patient receives before the primary course of surgical treatment) would affect the overall survival of cancer patients was determined in the example. According to the results, the overall survivals of patient with or without cisplatin treatment were respectively 26.36 and 18.96 months (data not shown). Then, the patients receiving the platinum-based therapy were further divided into responder group and non-responder group.

| SMILES | IC50 [1] [nM] | IC50 [2] [nM] | IC50 [3] [nM] | IC50 [4] [nM] | tumor growth (tumor size by caliper) [5] | overall survival [6] [months] |
| --- | --- | --- | --- | --- | --- | --- |
| CNCc1ccc(-c2[nH]c3cc(F)cc4c3c2CCNC4=O)cc1 [Rucaparib, rucaparib] | 2440 | 1980 | 2360 | 2510 | inhibited tumor growth | – |
| N.N.[Cl][Pt][Cl] [cisplatin] | – | – | – | – | – | 26.36 |
| CCS(=O)(=O)Nc1ccc(Oc2ccc(F)cc2F)c(-c2cn(C)c(=O)c3[nH]ccc23)c1 [Mivebresib, mivebresib] | 260 | 1410 | 191 | 273 | inhibited tumor growth | – |

From patent publication US20250049811A1, “METHODS OF TREATING PANCREATIC CANCER BY USING BET INHIBITOR AND PARP INHIBITOR” (NATIONAL CHENG KUNG UNIVERSITY, priority 2023, published 2025)
